Assay results from the OligoGym collection.
HELM strings list units from the 5' end as sugar, base in round brackets, then linkage (d deoxyribose, r ribose, m 2'-O-methyl, p phosphodiester). Strings are as the collection lists them; they lack the last nucleoside at the 3' end of the tested compound. [moe] = 2'-O-(2-methoxyethyl) (MOE); [sp] = phosphorothioate linkage; [m5C] = 5-methylcytosine

Biological target: ATXN2
Test: mouse, dose not given
Conditions: ASO

Row | Substance | 3 h FOB score
1 | RNA1{[moe](G)[sp].[moe](T)p.[moe](T)p.[moe]([m5C])p.[moe]([m5C])p.d(T)[sp].d(T)[sp].d(A)[sp].d([m5C])[sp].d(A)[sp].d(A)[sp].d(T)[sp].d(T)[sp].d(A)[sp].d(T)[sp].[moe]([m5C])p.[moe](T)p.[moe](A)[sp].[moe](T)}$$$$ (last 3' nucleoside missing) | 3 score 0-7
2 | RNA1{[moe](G)[sp].[moe](T)p.[moe]([m5C])p.[moe](T)p.[moe](T)p.d(G)[sp].d(T)[sp].d(T)[sp].d([m5C])[sp].d(A)[sp].d(G)[sp].d(T)[sp].d(G)[sp].d(T)[sp].d([m5C])[sp].[moe]([m5C])p.[moe](T)p.[moe](T)[sp].[moe]([m5C])}$$$$ (last 3' nucleoside missing) | 6 score 0-7
3 | RNA1{[moe](G)[sp].[moe]([m5C])[sp].[moe](T)[sp].[moe](A)[sp].[moe](A)[sp].d([m5C])[sp].d(T)[sp].d(G)[sp].d(G)[sp].d(T)[sp].d(T)[sp].d(T)[sp].d(G)[sp].d([m5C])[sp].d([m5C])[sp].[moe]([m5C])[sp].[moe](T)[sp].[moe](T)[sp].[moe](G)}$$$$ (last 3' nucleoside missing) | 7 score 0-7
4 | RNA1{[moe](G)[sp].[moe]([m5C])p.[moe](A)p.[moe](A)p.[moe](A)p.d(G)[sp].d(A)[sp].d([m5C])[sp].d(T)[sp].d(T)[sp].d(T)[sp].d(G)[sp].d(A)[sp].d(A)[sp].d(A)[sp].[moe](T)p.[moe]([m5C])p.[moe](T)[sp].[moe]([m5C])}$$$$ (last 3' nucleoside missing) | 0 score 0-7
5 | RNA1{[moe](G)[sp].[moe]([m5C])p.[moe](A)p.[moe](A)p.[moe]([m5C])p.d(T)[sp].d(T)[sp].d(A)[sp].d(A)[sp].d(T)[sp].d(A)[sp].d(A)[sp].d([m5C])[sp].d([m5C])[sp].d(T)[sp].[moe](T)p.[moe](A)p.[moe](G)[sp].[moe](T)}$$$$ (last 3' nucleoside missing) | 0 score 0-7
6 | RNA1{[moe](G)[sp].[moe]([m5C])p.[moe](A)p.[moe](T)p.[moe](G)p.d(A)[sp].d(T)[sp].d([m5C])[sp].d(T)[sp].d(T)[sp].d(G)[sp].d(T)[sp].d(G)[sp].d(T)[sp].d(A)[sp].[moe](T)p.[moe](A)p.[moe](T)[sp].[moe](A)}$$$$ (last 3' nucleoside missing) | 1 score 0-7
7 | RNA1{[moe](G)[sp].[moe]([m5C])p.[moe](A)p.[moe](T)p.[moe]([m5C])p.d(A)[sp].d(T)[sp].d(T)[sp].d(A)[sp].d([m5C])[sp].d(G)[sp].d(A)[sp].d([m5C])[sp].d([m5C])[sp].d(A)[sp].[moe](T)p.[moe](T)p.[moe]([m5C])[sp].[moe](T)}$$$$ (last 3' nucleoside missing) | 4 score 0-7
8 | RNA1{[moe](G)[sp].[moe]([m5C])p.[moe](A)p.[moe]([m5C])p.[moe](A)p.d(T)[sp].d(A)[sp].d(G)[sp].d(G)[sp].d(T)[sp].d(T)[sp].d(A)[sp].d(G)[sp].d(A)[sp].d(A)[sp].[moe](T)p.[moe](T)p.[moe](T)[sp].[moe](T)}$$$$ (last 3' nucleoside missing) | 4 score 0-7
9 | RNA1{[moe](G)[sp].[moe]([m5C])p.[moe](G)p.[moe](G)p.[moe](T)p.d(G)[sp].d(A)[sp].d(A)[sp].d(T)[sp].d(T)[sp].d([m5C])[sp].d(T)[sp].d(G)[sp].d(T)[sp].d([m5C])[sp].[moe](T)p.[moe]([m5C])p.[moe]([m5C])[sp].[moe]([m5C])}$$$$ (last 3' nucleoside missing) | 0 score 0-7
10 | RNA1{[moe](G)[sp].[moe]([m5C])p.[moe](T)p.[moe](A)p.[moe](A)[sp].d([m5C])[sp].d(T)[sp].d(G)[sp].d(G)[sp].d(T)[sp].d(T)[sp].d(T)[sp].d(G)[sp].[moe]([m5C])p.[moe]([m5C])p.[moe]([m5C])[sp].[moe](T)}$$$$ (last 3' nucleoside missing) | 6.5 score 0-7
11 | RNA1{[moe](G)[sp].[moe]([m5C])p.[moe](T)p.[moe](A)p.[moe](A)p.d([m5C])[sp].d(T)[sp].d(G)[sp].d(G)[sp].d(T)[sp].d(T)[sp].d(T)[sp].d(G)[sp].d([m5C])[sp].d([m5C])[sp].[moe]([m5C])p.[moe](T)p.[moe](T)[sp].[moe](G)}$$$$ (last 3' nucleoside missing) | 6.75 score 0-7
12 | RNA1{[moe](G)[sp].[moe]([m5C])p.[moe](T)p.[moe](G)p.[moe](A)p.d(T)[sp].d(G)[sp].d(T)[sp].d(G)[sp].d(T)[sp].d(T)[sp].d([m5C])[sp].d(A)[sp].d(T)[sp].d(G)[sp].[moe](A)p.[moe]([m5C])p.[moe](T)[sp].[moe](T)}$$$$ (last 3' nucleoside missing) | 4.5 score 0-7
13 | RNA1{[moe](G)[sp].[moe]([m5C])p.[moe](T)p.[moe](G)p.[moe](G)p.d(T)[sp].d(T)[sp].d([m5C])[sp].d([m5C])[sp].d(T)[sp].d(T)[sp].d(A)[sp].d([m5C])[sp].d(A)[sp].d(A)[sp].[moe](T)p.[moe](T)p.[moe](A)[sp].[moe](T)}$$$$ (last 3' nucleoside missing) | 0 score 0-7
14 | RNA1{[moe](G)[sp].[moe]([m5C])p.[moe](T)p.[moe](G)p.[moe](T)p.d(A)[sp].d(T)[sp].d(T)[sp].d(T)[sp].d(T)[sp].d(T)[sp].d(A)[sp].d([m5C])[sp].d(T)[sp].d([m5C])[sp].[moe](A)p.[moe]([m5C])p.[moe]([m5C])[sp].[moe](T)}$$$$ (last 3' nucleoside missing) | 0 score 0-7
15 | RNA1{[moe](G)[sp].[moe]([m5C])p.[moe](T)p.[moe](G)p.[moe](T)p.d(G)[sp].d(A)[sp].d(G)[sp].d(T)[sp].d(T)[sp].d([m5C])[sp].d(A)[sp].d([m5C])[sp].d([m5C])[sp].d(T)[sp].[moe](G)p.[moe]([m5C])p.[moe](A)[sp].[moe](T)}$$$$ (last 3' nucleoside missing) | 0 score 0-7
16 | RNA1{[moe](G)[sp].[moe]([m5C])p.[moe](T)p.[moe](G)p.[moe](T)p.d(G)[sp].d(T)[sp].d(A)[sp].d(T)[sp].d(T)[sp].d(T)[sp].d(T)[sp].d(T)[sp].d([m5C])[sp].d(T)[sp].[moe](T)p.[moe]([m5C])p.[moe]([m5C])[sp].[moe](T)}$$$$ (last 3' nucleoside missing) | 0 score 0-7
17 | RNA1{[moe](G)[sp].[moe]([m5C])p.[moe](T)p.[moe](T)p.[moe](A)[sp].d(G)[sp].d(A)[sp].d(G)[sp].d(T)[sp].d(T)[sp].d(T)[sp].d(T)[sp].d(T)[sp].[moe](G)p.[moe]([m5C])p.[moe]([m5C])[sp].[moe](T)}$$$$ (last 3' nucleoside missing) | 4 score 0-7
18 | RNA1{[moe](G)[sp].[moe]([m5C])p.[moe](T)p.[moe](T)p.[moe](A)p.[moe](G)p.d(A)[sp].d(G)[sp].d(T)[sp].d(T)[sp].d(T)[sp].d(T)[sp].d(T)[sp].d(G)[sp].d([m5C])[sp].d([m5C])[sp].[moe](T)p.[moe](T)[sp].[moe]([m5C])}$$$$ (last 3' nucleoside missing) | 5 score 0-7
19 | RNA1{[moe](G)[sp].[moe]([m5C])p.[moe](T)p.[moe](T)p.[moe](A)p.d(G)[sp].d(A)[sp].d(G)[sp].d(T)[sp].d(T)[sp].d(T)[sp].d(T)[sp].d(T)[sp].d(G)[sp].d([m5C])[sp].[moe]([m5C])p.[moe](T)p.[moe](T)[sp].[moe]([m5C])}$$$$ (last 3' nucleoside missing) | 4 score 0-7
20 | RNA1{[moe](G)[sp].[moe]([m5C])p.[moe](T)p.[moe](T)p.[moe](A)p.d(T)[sp].d(T)[sp].d(A)[sp].d(T)[sp].d(T)[sp].d([m5C])[sp].d(T)[sp].d([m5C])[sp].d(A)[sp].d([m5C])[sp].[moe](A)p.[moe](T)p.[moe](A)[sp].[moe](T)}$$$$ (last 3' nucleoside missing) | 0 score 0-7
21 | RNA1{[moe](G)[sp].[moe]([m5C])p.[moe](T)p.[moe](T)p.d(A)[sp].d(G)[sp].d(A)[sp].d(G)[sp].d(T)[sp].d(T)[sp].d(T)[sp].d(T)[sp].d(T)[sp].d(G)[sp].[moe]([m5C])p.[moe]([m5C])p.[moe](T)p.[moe](T)[sp].[moe]([m5C])}$$$$ (last 3' nucleoside missing) | 4 score 0-7
22 | RNA1{[moe](T)[sp].[moe](A)p.[moe](A)p.[moe](G)p.[moe](A)p.d([m5C])[sp].d(T)[sp].d(T)[sp].d(T)[sp].d(T)[sp].d(T)[sp].d(A)[sp].d(T)[sp].d(G)[sp].d(T)[sp].[moe](T)p.[moe](G)p.[moe]([m5C])[sp].[moe](T)}$$$$ (last 3' nucleoside missing) | 1 score 0-7
23 | RNA1{[moe](T)[sp].[moe](A)p.[moe](A)p.[moe](G)p.[moe]([m5C])p.d(T)[sp].d(G)[sp].d(T)[sp].d(G)[sp].d([m5C])[sp].d(T)[sp].d(A)[sp].d(T)[sp].d(G)[sp].d(G)[sp].[moe](T)p.[moe](G)p.[moe](G)[sp].[moe](T)}$$$$ (last 3' nucleoside missing) | 6.25 score 0-7
24 | RNA1{[moe](T)[sp].[moe](A)p.[moe](A)p.[moe](T)p.[moe](A)p.d(T)[sp].d(T)[sp].d([m5C])[sp].d([m5C])[sp].d(A)[sp].d(T)[sp].d(A)[sp].d([m5C])[sp].d(A)[sp].d(G)[sp].[moe](A)p.[moe](T)p.[moe]([m5C])[sp].[moe](G)}$$$$ (last 3' nucleoside missing) | 0 score 0-7
25 | RNA1{[moe](T)[sp].[moe](A)p.[moe](A)p.[moe]([m5C])p.[moe](T)[sp].d(G)[sp].d(G)[sp].d(T)[sp].d(T)[sp].d(T)[sp].d(G)[sp].d([m5C])[sp].d([m5C])[sp].[moe]([m5C])p.[moe](T)p.[moe](T)[sp].[moe](G)}$$$$ (last 3' nucleoside missing) | 6 score 0-7
26 | RNA1{[moe](T)[sp].[moe](A)p.[moe](G)p.[moe](A)p.[moe](G)p.d(T)[sp].d(T)[sp].d(T)[sp].d(T)[sp].d(T)[sp].d(G)[sp].d([m5C])[sp].d([m5C])[sp].d(T)[sp].d(T)[sp].[moe]([m5C])p.[moe]([m5C])p.[moe](A)[sp].[moe](T)}$$$$ (last 3' nucleoside missing) | 2.5 score 0-7
